The text below walks through data of patent US20250213555A1, “SUBSTITUTED TETRAHYDROFURAN ANALOGS AS MODULATORS OF SODIUM CHANNELS” (VERTEX PHARMACEUTICALS INCORPORATED, priority 2021, published 2025).

human Nav 1.8, sequence (Q9Y5Y9 126-399 limits assumed): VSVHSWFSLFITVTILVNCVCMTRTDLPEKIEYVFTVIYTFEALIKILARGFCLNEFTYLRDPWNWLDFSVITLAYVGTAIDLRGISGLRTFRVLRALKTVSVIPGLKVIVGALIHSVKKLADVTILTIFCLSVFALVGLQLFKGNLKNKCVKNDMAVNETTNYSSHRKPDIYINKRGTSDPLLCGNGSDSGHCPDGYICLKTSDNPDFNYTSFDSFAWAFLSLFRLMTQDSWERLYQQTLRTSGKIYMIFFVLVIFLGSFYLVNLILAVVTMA
human Nav 1.8, sequence (Q9Y5Y9 660-890 limits assumed): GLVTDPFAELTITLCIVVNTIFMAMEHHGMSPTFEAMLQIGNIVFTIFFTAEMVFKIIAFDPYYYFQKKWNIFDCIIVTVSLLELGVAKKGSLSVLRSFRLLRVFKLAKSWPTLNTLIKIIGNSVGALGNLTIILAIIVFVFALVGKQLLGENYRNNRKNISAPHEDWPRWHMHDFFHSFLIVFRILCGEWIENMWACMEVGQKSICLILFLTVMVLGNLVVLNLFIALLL
human Nav 1.8, sequence (Q9Y5Y9 1148-1722 limits assumed): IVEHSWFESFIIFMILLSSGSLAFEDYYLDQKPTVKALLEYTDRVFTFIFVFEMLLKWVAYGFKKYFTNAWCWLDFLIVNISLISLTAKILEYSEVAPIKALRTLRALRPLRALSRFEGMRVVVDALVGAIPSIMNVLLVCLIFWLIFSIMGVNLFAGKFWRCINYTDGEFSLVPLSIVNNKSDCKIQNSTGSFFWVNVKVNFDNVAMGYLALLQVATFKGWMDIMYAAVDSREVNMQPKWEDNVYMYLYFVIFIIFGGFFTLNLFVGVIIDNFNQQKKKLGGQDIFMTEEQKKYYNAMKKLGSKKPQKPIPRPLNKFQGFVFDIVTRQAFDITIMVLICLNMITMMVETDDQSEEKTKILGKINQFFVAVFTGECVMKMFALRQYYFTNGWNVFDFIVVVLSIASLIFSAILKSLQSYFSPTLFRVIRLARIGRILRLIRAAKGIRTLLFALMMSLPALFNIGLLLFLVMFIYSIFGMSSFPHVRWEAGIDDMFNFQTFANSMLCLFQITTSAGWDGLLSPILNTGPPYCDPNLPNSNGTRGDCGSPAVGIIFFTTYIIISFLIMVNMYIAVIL

The target in one test is human Nav 1.8 (Homo sapiens, UniProt Q9Y5Y9). The test can be described thus: E-VIPR assay detecting and measuring Nav inhibition properties. The test is classed as cell-based. To be noted: HEK cells expressing a truncated form of human Nav 1.8; assay performed in the presence of human serum (compound numbers followed by "*"); read-out: measured IC50 value in the E-VIPR Assay. In a few lines:
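Nav inhibition was read by E-VIPR: cells were electrically stimulated while coumarin/oxonol FRET emissions were recorded. Cells were HEK expressing a truncated human Nav 1.8 and co-transduced with KIR2.1, and were assayed in 25% final human serum.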
One may read the IC50 as the concentration needed to halve the response being measured. Regarding `C[C@]1(C(F)(F)F)C[C@@H](c2ccc(F)c(F)c2OCCCO)[C@H](C(=O)Nc2ccnc(C(N)=O)c2)O1` (relative stereo) [Compound 35, rel-4-((2R,3S,5R)-3-(3,4-difluoro-2-(3-hydroxypropoxy)phenyl)-5-methyl-5-(trifluoromethyl)tetrahydrofuran-2-carboxamido)picolinamide], the IC50 is 100 to 1000 nM.

Staying with this test, now noted: HEK cells expressing a truncated form of human Nav 1.8; compound numbers without "*" (not marked as run in the presence of human serum); read-out: measured IC50 value in the E-VIPR Assay.
As for `CC1C(c2ccc(F)c(F)c2OCC2CC(O)C2)C(C(=O)Nc2cccc(C(N)=O)c2)OC1(C)C(F)(F)F` (single isomer, unassigned) [Compound 197, rel-(2R*,3S*,4S*,5R*)-N-(3-carbamoylphenyl)-3-(3,4-difluoro-2-(((1r,3S)-3-hydroxycyclobutyl)methoxy)phenyl)-4,5-dimethyl-5-(trifluoromethyl)tetrahydrofuran-2-carboxamide], the IC50 is less than 10 nM. Regarding `C[C@H](COc1c([C@H]2[C@H](C(=O)Nc3ccnc(C(N)=O)c3)O[C@@](C)(C(F)(F)F)[C@H]2C)ccc(F)c1F)N1CC2(COC2)C1` [Compound 42, 4-((2R,3S,4S,5R)-3-(2-((R)-2-(2-oxa-6-azaspiro[3.3]heptan-6-yl)propoxy)-3,4-difluorophenyl)-4,5-dimethyl-5-(trifluoromethyl)tetrahydrofuran-2-carboxamido)picolinamide], the IC50 lay within 10 to 100 nM.

With `CC(CO)COc1c([C@H]2[C@H](C(=O)Nc3ccnc(C(N)=O)c3)O[C@@](C)(C(F)(F)F)[C@H]2C)ccc(F)c1F` (stereo partly drawn) [Compound 90, 4-((2R,3S,4S,5R)-3-(3,4-difluoro-2-(3-hydroxy-2-methylpropoxy)phenyl)-4,5-dimethyl-5-(trifluoromethyl)tetrahydrofuran-2-carboxamido)picolinamide], the IC50 was less than 10 nM. On the same count and under the same terms, as for `C[C@H]1[C@@H](c2ccc(F)c(F)c2OCCN2C[C@H]3COC[C@H]3C2)[C@H](C(=O)Nc2ccnc(C(N)=O)c2)O[C@@]1(C)C(F)(F)F` [Compound 55, 4-((2R,3S,4S,5R)-3-(3,4-difluoro-2-(2-((3aR,6aS)-tetrahydro-1H-furo[3,4-c]pyrrol-5(3H)-yl)ethoxy)phenyl)-4,5-dimethyl-5-(trifluoromethyl)tetrahydrofuran-2-carboxamido)picolinamide], the figure is less than 10 nM; as for `COc1c([C@H]2[C@H](C(=O)Nc3ccnc(C(=O)N4CC5(CCN5)C4)c3)O[C@@](C)(C(F)(F)F)[C@H]2C)ccc(F)c1F` [Compound 215, (2R,3S,4S,5R)—N-(2-(1,6-diazaspiro[3.3]heptane-6-carbonyl)pyridin-4-yl)-3-(3,4-difluoro-2-methoxyphenyl)-4,5-dimethyl-5-(trifluoromethyl)tetrahydrofuran-2-carboxamide], less than 10 nM; as for `COc1c([C@H]2[C@H](C(=O)Nc3ccnc(C(=O)N4CC5COCC(C4)N5)c3)O[C@@](C)(C(F)(F)F)[C@H]2C)ccc(F)c1F` [Compound 245, (2R,3S,4S,5R)-N-(2-(3-oxa-7,9-diazabicyclo[3.3.1]nonane-7-carbonyl)pyridin-4-yl)-3-(3,4-difluoro-2-methoxyphenyl)-4,5-dimethyl-5-(trifluoromethyl)tetrahydrofuran-2-carboxamide], less than 10 nM.

For `CC1C(c2ccc(F)c(F)c2OCC2CCC2O)C(C(=O)Nc2ccnc(C(N)=O)c2)OC1(C)C(F)(F)F` [Compound 98, rel-4-((2R*,3S*,4S*,5R*)-3-(3,4-difluoro-2-(((15,2S)-2-hydroxycyclobutyl)methoxy)phenyl)-4,5-dimethyl-5-(trifluoromethyl)tetrahydrofuran-2-carboxamido)picolinamide], the IC50 was in the range of 10 to 100 nM. Turning to `CON=C(C)COc1c([C@H]2[C@H](C(=O)Nc3ccnc(C(N)=O)c3)O[C@@](C)(C(F)(F)F)[C@H]2C)ccc(F)c1F` (single isomer, unassigned) [Compound 194, rel-4-((2R*,3S*,4S*,5R*)-3-(3,4-difluoro-2-(2-(methoxyimino)propoxy)phenyl)-4,5-dimethyl-5-(trifluoromethyl)tetrahydrofuran-2-carboxamido)picolinamide], the IC50 was less than 10 nM. Same read-out and setting: as for `COc1c([C@H]2[C@H](C(=O)Nc3cccc(C(=O)N4CCN(C)CC4)n3)O[C@@](C)(C(F)(F)F)[C@H]2C)ccc(F)c1F` [Compound 10, (2R,3S,4S,5R)-3-(3,4-difluoro-2-methoxyphenyl)-4,5-dimethyl-N-(6-(4-methylpiperazine-1-carbonyl)pyridin-2-yl)-5-(trifluoromethyl)tetrahydrofuran-2-carboxamide], the figure is 100 to 1000 nM; as for `C[C@H]1[C@@H](c2ccc(F)c(F)c2OCC2CCOC2)[C@H](C(=O)Nc2ccnc(C(N)=O)c2)O[C@@]1(C)C(F)(F)F` (single isomer, unassigned) [Compound 67], less than 10 nM. As to `C[C@]1(C(F)(F)F)C[C@@H](c2ccc(OC(F)(F)F)cc2Cl)[C@H](C(=O)Nc2ccnc(C(N)=O)c2)O1` (stereo in doubt) [Compound 151, rel-4-((2R,3S,5R)-3-(2-chloro-4-(trifluoromethoxy)phenyl)-5-methyl-5-(trifluoromethyl)tetrahydrofuran-2-carboxamido) picolinamide], the IC50 was 10 to 100 nM. The same measure, in the same setting: the same measure for `COc1c(C2CC3(COC3)OC2C(=O)Nc2ccnc(C(N)=O)c2)ccc(F)c1C` (single isomer, unassigned) [Compound 24]: no less than 1000 nM.

As to `CNC(=O)c1cc(NC(=O)[C@@H]2O[C@@](C)(C(F)(F)F)[C@@H](C)[C@H]2c2ccc(F)c(F)c2OCCO)ccn1` [Compound 38, 4-((2R,3S,4S,5R)-3-(3,4-difluoro-2-(2-hydroxyethoxy)phenyl)-4,5-dimethyl-5-(trifluoromethyl)tetrahydrofuran-2-carboxamido)-N-methylpicolinamide], the IC50 is less than 10 nM.

Regarding `COC1CC(Oc2c([C@H]3[C@H](C(=O)Nc4ccnc(C(N)=O)c4)O[C@@](C)(C(F)(F)F)[C@H]3C)ccc(F)c2F)C1` (stereo partly drawn) [Compound 162, 4-((2R,3S,4S,5R)-3-(3,4-difluoro-2-(3-methoxycyclobutoxy)phenyl)-4,5-dimethyl-5-(trifluoromethyl)tetrahydrofuran-2-carboxamido)picolinamide], the IC50 is less than 10 nM. The same measure, in the same setting: as for `C[C@H]1[C@@H](c2ccc(F)c(F)c2OCC2(C)COC2)[C@H](C(=O)Nc2ccnc(C(N)=O)c2)O[C@@]1(C)C(F)(F)F` [Compound 63, 4-((2R,3S,4S,5R)-3-(3,4-difluoro-2-((3-methyloxetan-3-yl)methoxy)phenyl)-4,5-dimethyl-5-(trifluoromethyl)tetrahydrofuran-2-carboxamido)picolinamide], the figure is 10 to 100 nM. Still for that read-out and setting: as for `C[C@H]1[C@@H](c2ccc(F)c(F)c2OCCN2CC(C(F)F)C2)[C@H](C(=O)Nc2ccnc(C(N)=O)c2)O[C@@]1(C)C(F)(F)F` [Compound 120, 4-((2R,3S,4S,5R)-3-(2-(2-(3-(difluoromethyl)azetidin-1-yl)ethoxy)-3,4-difluorophenyl)-4,5-dimethyl-5-(trifluoromethyl)tetrahydrofuran-2-carboxamido)picolinamide], the figure is less than 10 nM; as for `COc1c([C@@H]2[C@@H](C)[C@@](C)(C(F)(F)F)O[C@H]2C(=O)Nc2ccnc(C(N)=O)c2)ccc(OCC2CC2)c1F` (single isomer, unassigned) [Compound 142], no less than 1000 nM; as for `COc1c([C@H]2[C@H](C(=O)Nc3cc(C(=O)N4CCN(C)CC4)ncn3)O[C@@](C)(C(F)(F)F)[C@H]2C)ccc(F)c1F` [Compound 22, (2R,3S,4S,5R)-3-(3,4-difluoro-2-methoxyphenyl)-4,5-dimethyl-N-(6-(4-methylpiperazine-1-carbonyl)pyrimidin-4-yl)-5-(trifluoromethyl)tetrahydrofuran-2-carboxamide], 100 to 1000 nM. For the compound `C[C@H]1[C@@H](c2ccc(F)c(F)c2OCC(=NO)C2CC2)[C@H](C(=O)Nc2ccnc(C(N)=O)c2)O[C@@]1(C)C(F)(F)F` [Compound 182, 4-((2R,3S,4S,5R)-3-(2-(2-cyclopropyl-2-(hydroxyimino)ethoxy)-3,4-difluorophenyl)-4,5-dimethyl-5-(trifluoromethyl)tetrahydrofuran-2-carboxamido) picolinamide], the IC50 is less than 10 nM. As to `C/C(COc1c([C@H]2[C@H](C(=O)Nc3ccnc(C(N)=O)c3)O[C@@](C)(C(F)(F)F)[C@H]2C)ccc(F)c1F)=N\O` [Compound 185, 4-((2R,3S,4S,5R)-3-(3,4-difluoro-2-((E)-2-(hydroxyimino)propoxy)phenyl)-4,5-dimethyl-5-(trifluoromethyl)tetrahydrofuran-2-carboxamido)picolinamide], the IC50 is less than 10 nM.

Consider `COc1c([C@H]2[C@H](C(=O)Nc3ccnc(C(=O)N4CCN(C)C[C@@H]4C)c3)O[C@@](C)(C(F)(F)F)[C@H]2C)ccc(F)c1F` [Compound 272, (2R,3S,4S,5R)-3-(3,4-difluoro-2-methoxyphenyl)-N-(2-((S)-2,4-dimethylpiperazine-1-carbonyl)pyridin-4-yl)-4,5-dimethyl-5-(trifluoromethyl)tetrahydrofuran-2-carboxamide], for which the half-maximal inhibitory concentration (IC50) was in the range of 10 to 100 nM. For the compound `COc1c([C@H]2[C@H](C(=O)Nc3ccnc(C(=O)N[C@H]4CN(C)CC[C@H]4OC)c3)O[C@@](C)(C(F)(F)F)[C@H]2C)ccc(F)c1F` [Compound 285, 4-((2R,3S,4S,5R)-3-(3,4-difluoro-2-methoxyphenyl)-4,5-dimethyl-5-(trifluoromethyl)tetrahydrofuran-2-carboxamido)-N-((3S,4R)-4-methoxy-1-methylpiperidin-3-yl)picolinamide], the IC50 was 100 to 1000 nM.

Regarding `COC1(C)CN(CCOc2c([C@H]3[C@H](C(=O)Nc4ccnc(C(N)=O)c4)O[C@@](C)(C(F)(F)F)[C@H]3C)ccc(F)c2F)C1` [Compound 48, 4-((2R,3S,4S,5R)-3-(3,4-difluoro-2-(2-(3-methoxy-3-methylazetidin-1-yl)ethoxy)phenyl)-4,5-dimethyl-5-(trifluoromethyl)tetrahydrofuran-2-carboxamido)picolinamide], the IC50 lay in the range of 10 to 100 nM.
